The values that follow are results of earlier work, collected in US5502059A, “Substituted 1-naphthyl-3-pyrazolecarboxamides which are active on neurotensin, their preparation and pharmaceutical compositions containing them” (Sanofi, priority 1993, dated 1996).

In this data set the test system is neurotensin receptors.

For the compound `COc1cccc(OC)c1-c1cc(C(=O)NC2(C(=O)O)C3CC4CC(C3)CC2C4)nn1-c1ccnc2cc(Cl)ccc12` (stereo not shown) [SR 48692, 2-1-(7-chloro-4-quinolyl)-5-(2,6-dimethoxyphenyl)-3pyrazolylcarbonylamino!-2-adamantanecarboxylic acid], the neurotensin-antagonist activity entry is “potent and selective neurotensin-antagonist activity”.
